From ChEMBL document CHEMBL1132635, “N6,5'-Disubstituted adenosine derivatives as partial agonists for the human adenosine A3 receptor” (J Med Chem, 1999)

Experiments:
Adenosine receptor A3 [1] = biological target: T1, Adenosine receptor A3 (Homo sapiens, UniProt P0DMS8); test: Binding affinity at human Adenosine A3 receptor expressed in HEK 293 cells by [125I]AB-MECA displacement.; assay type: cell-based, HEK293
T1 sequence (P0DMS8 whole entry): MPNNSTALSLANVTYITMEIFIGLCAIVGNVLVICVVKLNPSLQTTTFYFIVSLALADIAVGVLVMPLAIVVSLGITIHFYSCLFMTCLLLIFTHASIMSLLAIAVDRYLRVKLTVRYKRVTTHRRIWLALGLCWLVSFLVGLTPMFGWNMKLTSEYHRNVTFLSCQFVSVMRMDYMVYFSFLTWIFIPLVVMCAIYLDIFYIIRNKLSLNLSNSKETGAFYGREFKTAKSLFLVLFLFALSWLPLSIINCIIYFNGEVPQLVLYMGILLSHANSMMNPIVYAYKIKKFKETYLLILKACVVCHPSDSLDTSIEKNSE

[2] = biological target: T2, Adenosine receptor A1 (Rattus norvegicus) (UniProt P25099); test: Percentage displacement of [3H]DPCPX from rat cortical membranes Adenosine A1 receptor at 10 uM; assay type: cell membranes; conditions: Membrane
T2 sequence (whole entry): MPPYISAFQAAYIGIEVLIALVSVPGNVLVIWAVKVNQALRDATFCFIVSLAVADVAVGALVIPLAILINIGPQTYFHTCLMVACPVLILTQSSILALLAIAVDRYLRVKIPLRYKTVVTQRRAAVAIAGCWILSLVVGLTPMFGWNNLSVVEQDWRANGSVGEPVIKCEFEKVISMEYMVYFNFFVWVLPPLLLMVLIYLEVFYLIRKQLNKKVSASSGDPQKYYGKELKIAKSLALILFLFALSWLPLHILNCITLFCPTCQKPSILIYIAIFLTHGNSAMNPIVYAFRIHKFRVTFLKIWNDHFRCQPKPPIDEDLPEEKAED

[3] = biological target: T3, Adenosine receptor A3 (Homo sapiens) (UniProt P0DMS8); test: Percentage of [35S]GTP-gamma-S, binding to the human adenosine A3 receptor stimulated at 10E-4 M; assay type: functional
T3 sequence (whole entry): T1 sequence (P0DMS8 whole entry)

[4] = biological target: Adenosine receptor A2a (Rattus norvegicus) (UniProt P30543); test: Percentage displacement of [3H]-CGS- 21680 from Adenosine A2A receptor of rat striatal membranes at 10 uM; assay type: cell membranes; conditions: Membrane
Chain of Adenosine receptor A2a (Rattus norvegicus) (P30543 whole entry): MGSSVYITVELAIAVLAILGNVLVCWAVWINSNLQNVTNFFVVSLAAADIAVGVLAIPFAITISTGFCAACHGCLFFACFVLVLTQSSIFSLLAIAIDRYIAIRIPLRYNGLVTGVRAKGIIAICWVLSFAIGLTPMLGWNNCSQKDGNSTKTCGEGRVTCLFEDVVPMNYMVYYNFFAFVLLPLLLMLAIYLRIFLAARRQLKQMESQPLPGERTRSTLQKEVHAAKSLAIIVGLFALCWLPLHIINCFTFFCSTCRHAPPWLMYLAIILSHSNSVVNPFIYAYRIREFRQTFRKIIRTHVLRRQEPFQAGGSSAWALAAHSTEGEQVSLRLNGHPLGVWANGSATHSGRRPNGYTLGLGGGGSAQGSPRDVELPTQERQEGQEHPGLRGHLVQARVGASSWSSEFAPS

[5] = biological target: Adenosine receptors; A1 & A3 (Rattus norvegicus) (UniProt P25099+P28647); test: Ratio of displacement of A1 receptor to A3 receptor; assay type: protein assay
Adenosine receptor A2a [6] = biological target: T4, Adenosine receptor A2a (Rattus norvegicus, UniProt P30543); test: Displacement of [3H]-CGS- 21680 from Adenosine A2A receptor of rat striatal membranes; assay type: cell membranes, Membrane
T4 sequence (P30543 whole entry): as above

Adenosine receptor A3 [7] = biological target: T1, Adenosine receptor A3; test: Effective concentration for stimulation of [35S]GTP-gamma-S, binding to human adenosine A3 receptor; assay type: functional
[8] = biological target: T3, Adenosine receptor A3 (Homo sapiens); test: Inhibition of forskolin-stimulated cAMP production mediated by human adenosine A3 receptor expressed in CHO cells at 10 uM; assay type: functional, cell-based
[9] = biological target: T3, Adenosine receptor A3 (Homo sapiens); test: Inhibition of forskolin-induced c-AMP production by adenosine A3 receptor with 10 uM NECA; assay type: functional
Adenosine receptor A3 [10] = biological target: T1, Adenosine receptor A3; test: Displacement of [125I]AB-MECA from human Adenosine A3 receptor expressed in HEK 293 cells; assay type: cell-based, HEK293
Adenosine receptor A1 = biological target: T5, Adenosine receptor A1 (Rattus norvegicus, UniProt P25099); test: Displacement of [3H]DPCPX from rat cortical membranes Adenosine A1 receptor; assay type: cell membranes, Membrane
T5 sequence (P25099 whole entry): T2 sequence (whole entry)

Adenosine receptor A2a [11] = biological target: T4, Adenosine receptor A2a; test: Displacement of [3H]-CGS- […] from Adenosine A2A receptor of rat striatal membranes; assay type: cell membranes, Membrane

SMILES | Ki (Adenosine receptor A3 [1]) [nM] | Radioligand bound [3] [%] | Ratio [5] | further results
CNC(=O)[C@H]1OC(n2cnc3c(NCc4ccccc4)ncnc32)[C@@H](O)[C@H]1O (some centres undefined) | 41 | – | – | –
CC(C)SC[C@H]1O[C@@H](n2cnc3c(NCc4ccccc4)ncnc32)[C@H](O)[C@@H]1O | 211 | 22 | > 47.4 | Displacement [2]: 14%; Displacement [4]: 6%
OC[C@H]1O[C@@H](n2cnc3c(NCc4ccccc4)ncnc32)[C@H](O)[C@@H]1O [N6-BENZYLADENOSINE] | 550 | 81 | – | Ki (Adenosine receptor A2a [6]): 733 nM; EC50 (Adenosine receptor A3 [7]): 384 nM; inhibition [8]: 82%; inhibition [9]: 94%
CC(C)SC[C@H]1O[C@@H](n2cnc3c(NCc4cccc(I)c4)ncnc32)[C@H](O)[C@@H]1O | 46.3 | 16 | > 216 | Displacement [2]: 35%; Displacement [4]: 45%
CCNC(=O)[C@H]1O[C@@H](n2cnc3c(N)ncnc32)[C@H](O)[C@@H]1O | – | 100 | – | inhibition [8]: 100%
CSC[C@H]1O[C@@H](n2cnc3c(NCc4ccccc4)ncnc32)[C@H](O)[C@@H]1O | 128 | 52 | > 78.1 | Displacement [2]: 31%; EC50 (Adenosine receptor A3 [7]): 473 nM; Displacement [4]: 25%; inhibition [8]: 60%; inhibition [9]: 93%
O[C@H]1[C@@H](c2ccon2)OC(n2cnc3c(NCc4cccc(I)c4)nc(Cl)nc32)[C@H]1O (some centres undefined) | 7.8 | – | – | –
OC[C@H]1O[C@@H](n2cnc3c(NCc4cccc(I)c4)ncnc32)[C@H](O)[C@@H]1O | – | 56 | – | inhibition [8]: 86%; inhibition [9]: 91%
CNC(=O)C[C@H]1OC(n2cnc3c(NCc4cccc(I)c4)nc(Cl)nc32)[C@@H](O)[C@H]1O (some centres undefined) | – | – | – | Ki (Adenosine receptor A3 [10]): 0.33 nM
CSC[C@H]1O[C@@H](n2cnc3c(NCc4cccc(I)c4)ncnc32)[C@H](O)[C@@H]1O | 8.78 | 41 | 69.5 | Ki (Adenosine receptor A2a [6]): 1820 nM; Ki (Adenosine receptor A1): 610 nM; EC50 (Adenosine receptor A3 [7]): 27 nM; inhibition [8]: 64%; inhibition [9]: 87%
CCCSC[C@H]1O[C@@H](n2cnc3c(NC4CCCC4)ncnc32)[C@H](O)[C@@H]1O | 193 | – | 0.39 | –
O[C@@H]1[C@H](O)[C@@H](CCl)O[C@H]1n1cnc2c(NC3CCCC3)ncnc21 | 1290 | – | 0.007 | –
CC(C)SC[C@H]1O[C@@H](n2cnc3c(NC4CCCC4)ncnc32)[C@H](O)[C@@H]1O | 137 | – | 0.3 | Ki (Adenosine receptor A2a [11]): 10200 nM; Ki (Adenosine receptor A1): 41 nM
CCCSC[C@H]1O[C@@H](n2cnc3c(NCc4cccc(I)c4)ncnc32)[C@H](O)[C@@H]1O | 44.3 | 10 | > 226 | Displacement [2]: 42%; Displacement [4]: 42%
CCSC[C@H]1O[C@@H](n2cnc3c(NCc4ccccc4)ncnc32)[C@H](O)[C@@H]1O | 159 | 19 | > 62.9 | Displacement [2]: 29%; Displacement [4]: 38%
OC[C@H]1O[C@@H](n2cnc3c(NC4CCCC4)ncnc32)[C@H](O)[C@@H]1O [N6-CYCLOPENTYLADENOSINE] | 120 | – | – | –
CSC[C@H]1O[C@@H](n2cnc3c(NC4CCCC4)ncnc32)[C@H](O)[C@@H]1O | 74 | – | 0.8 | –
CCSC[C@H]1O[C@@H](n2cnc3c(NC4CCCC4)ncnc32)[C@H](O)[C@@H]1O | 90 | – | 0.5 | –
COc1cccc(CNc2nc(Cl)nc3c2ncn3C2O[C@H](c3ccon3)[C@H](O)[C@@H]2O)c1 (some centres undefined) | 31 | – | – | –
O[C@@H]1[C@H](O)[C@@H](CCl)O[C@H]1n1cnc2c(NCc3cccc(I)c3)ncnc21 | 188 | 8 | 1.4 | Ki (Adenosine receptor A2a [6]): 457 nM; Ki (Adenosine receptor A1): 270 nM
CCCSC[C@H]1O[C@@H](n2cnc3c(NCc4ccccc4)ncnc32)[C@H](O)[C@@H]1O | 647 | 7 | 8.7 | Ki (Adenosine receptor A2a [6]): 7990 nM; Ki (Adenosine receptor A1): 5870 nM
CCSC[C@H]1O[C@@H](n2cnc3c(NCc4cccc(I)c4)ncnc32)[C@H](O)[C@@H]1O | 17.5 | 21 | 41.1 | Ki (Adenosine receptor A2a [6]): 1080 nM; Ki (Adenosine receptor A1): 720 nM
O[C@@H]1[C@H](O)[C@@H](CCl)O[C@H]1n1cnc2c(NCc3ccccc3)ncnc21 | 1860 | 13 | > 5.4 | Displacement [2]: 47%; Ki (Adenosine receptor A2a [6]): 641 nM
